From article PMC11414674, “Cryo-EM structure of ACE2-SIT1 in complex with tiagabine” (The Journal of Biological Chemistry, 2024)

Tests used:
[1] = biological target: T1, SIT1 (SLC6A20) (Homo sapiens, UniProt Q9NP91); assay: […]proline uptake in Xenopus oocytes, inhibitor at […]; format: cell-based; set-up: with ACE2; conditions: read-out: % inhibition at 100 μM
[2] = biological target: T2, B0AT2 (SLC6A15) (Homo sapiens, UniProt Q9H2J7); assay: labelled leucine uptake in Xenopus oocytes, tiagabine at […]; format: cell-based
T2 sequence (Q9H2J7 1-730): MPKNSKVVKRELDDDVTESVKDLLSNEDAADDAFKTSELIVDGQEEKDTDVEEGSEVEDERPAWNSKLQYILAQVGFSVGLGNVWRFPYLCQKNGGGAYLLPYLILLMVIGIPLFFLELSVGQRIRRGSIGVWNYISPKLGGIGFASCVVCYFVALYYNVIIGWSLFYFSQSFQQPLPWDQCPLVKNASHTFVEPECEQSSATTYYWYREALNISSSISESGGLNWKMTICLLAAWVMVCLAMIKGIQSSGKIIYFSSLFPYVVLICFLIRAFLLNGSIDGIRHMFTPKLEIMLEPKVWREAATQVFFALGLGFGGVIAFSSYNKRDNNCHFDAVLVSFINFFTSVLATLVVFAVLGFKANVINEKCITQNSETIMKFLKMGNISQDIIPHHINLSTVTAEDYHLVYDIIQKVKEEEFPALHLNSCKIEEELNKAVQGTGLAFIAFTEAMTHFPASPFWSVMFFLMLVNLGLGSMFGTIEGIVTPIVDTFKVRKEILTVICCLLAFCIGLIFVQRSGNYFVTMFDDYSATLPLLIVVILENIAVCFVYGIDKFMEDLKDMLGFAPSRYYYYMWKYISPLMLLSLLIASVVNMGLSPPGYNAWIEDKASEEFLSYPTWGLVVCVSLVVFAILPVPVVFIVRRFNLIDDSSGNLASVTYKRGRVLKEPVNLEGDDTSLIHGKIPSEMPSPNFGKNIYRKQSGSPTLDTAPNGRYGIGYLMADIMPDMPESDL

[3] = biological target: T1, SIT1 (SLC6A20); assay: cryo-EM structure at […] Å; IC50 from […]proline uptake in Xenopus oocytes expressing SIT1-ACE2 ([…] proline); format: cell-based; set-up: full-length human SIT1, N-terminal FLAG tag, in complex with full-length ACE2; with ACE2
[4] = substrate: O=C(O)[C@@H]1CCCN1; assay: cells, lysate or membranes; conditions: Na+ and Cl- orthosteric substrate site

T1 sequence (Q9BYF1 18-805 partner, one chain of several): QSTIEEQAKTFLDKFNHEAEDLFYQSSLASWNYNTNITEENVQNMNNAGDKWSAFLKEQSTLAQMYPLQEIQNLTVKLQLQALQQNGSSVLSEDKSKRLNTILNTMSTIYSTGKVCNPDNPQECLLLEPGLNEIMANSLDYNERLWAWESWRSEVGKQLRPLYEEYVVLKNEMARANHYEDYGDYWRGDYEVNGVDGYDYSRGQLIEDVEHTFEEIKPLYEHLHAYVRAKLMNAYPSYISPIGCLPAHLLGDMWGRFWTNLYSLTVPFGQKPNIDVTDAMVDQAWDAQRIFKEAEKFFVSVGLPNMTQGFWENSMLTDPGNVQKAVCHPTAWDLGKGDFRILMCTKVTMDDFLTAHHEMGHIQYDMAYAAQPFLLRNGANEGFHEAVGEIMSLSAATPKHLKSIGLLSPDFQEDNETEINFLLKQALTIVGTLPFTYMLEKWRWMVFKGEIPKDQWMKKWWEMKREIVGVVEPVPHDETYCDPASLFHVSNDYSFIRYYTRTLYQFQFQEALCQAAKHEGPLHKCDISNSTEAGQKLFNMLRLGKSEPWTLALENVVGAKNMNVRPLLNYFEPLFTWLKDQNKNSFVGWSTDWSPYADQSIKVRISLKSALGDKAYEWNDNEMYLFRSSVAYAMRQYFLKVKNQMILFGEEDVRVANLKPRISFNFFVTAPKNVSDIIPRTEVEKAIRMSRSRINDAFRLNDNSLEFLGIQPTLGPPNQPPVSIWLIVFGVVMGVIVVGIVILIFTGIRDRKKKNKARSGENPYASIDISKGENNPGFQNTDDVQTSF

## O=C(O)C1=CCCN(CCOC(c2ccc(C(F)(F)F)cc2)c2ccc(C(F)(F)F)cc2)C1 [CI966]
[1]
  inhibition at 100 µM: 53%

## O=C(O)C1CCCN(CCC=C(c2ccccc2)c2ccccc2)C1 (centres unmarked) [SKF89976A]
[1]
  inhibition at 100 µM: 58%

## Cc1ccsc1C(=CCCN1CCC[C@@H](C(=O)O)C1)c1sccc1C [tiagabine]
[2]
  labelled leucine uptake in Xenopus oocytes, tiagabine at 100 μM: The branched-chain amino acid transporter B^0AT2 (SLC6A15) was similarly sensitive to inhibition by Tiagabine
[3]
  IC50: 18 ± 4 µM

B1: SIT1 (SLC6A20) (Homo sapiens) (protein)
chain: MEKARPLWANSLQFVFACISYAVGLGNVWRFPYLCQMYGGGSFLVPYIIMLIVEGMPLLYLELAVGQRMRQGSIGAWRTISPYLSGVGVASVVVSFFLSMYYNVINAWAFWYLFHSFQDPLPWSVCPLNGNHTGYDEECEKASSTQYFWYRKTLNISPSLQENGGVQWEPALCLLLAWLVVYLCILRGTESTGKVVYFTASLPYCVLIIYLIRGLTLHGATNGLMYMFTPKIEQLANPKAWINAATQIFFSLGLGFGSLIAFASYNEPSNNCQKHAIIVSLINSFTSIFASIVTFSIYGFKATFNYENCLKKVSLLLTNTFDLEDGFLTASNLEQVKGYLASAYPSKYSEMFPQIKNCSLESELDTAVQGTGLAFIVYTEAIKNMEVSQLWSVLYFFMLLMLGIGSMLGNTAAILTPLTDSKIISSHLPKEAISGLVCLVNCAIGMVFTMEAGNYWFDIFNDYAATLSLLLIVLVETIAVCYVYGLRRFESDLKAMTGRAVSWYWKVMWAGVSPLLIVSLFVFYLSDYILTGTLKYQAWDASQGQLVTKDYPAYALAVIGLLVASSTMCIPLAALGTFVQRRLKRGDADPVA
[4]
  Km: 130 µM
